From publication PMC10374545, “A small molecule inhibitor of PTP1B and PTPN2 enhances T cell anti-tumor immunity” (Nature Communications, 2023)
Several values for one entry are separate records, joined by “and”; a condition that tells them apart may be missing. Equal entries are not always repeated.

What was measured:
AT3 mammary tumors = assay: AT3 tumor growth in Lck-Cre;Ptpn2fl/fl mice; assay type: in vivo, mouse; set-up: key to Tumour growth: tumour size in mm^2 (two-dimensional caliper measurement); Tumour weights / Tumour weights (mean): unit not given here; settings: for Tumour size (mean): CMP-182 in LCK-CRE-PTPN2 mice (Group C), in mm2; for Tumour growth: individual mice (Figure 8D)
Method: (§1) Male or female mice were injected subcutaneously with 5 × 10^5 MC38 tumor cells resuspended in 100 μl D-PBS into the flank. Alternatively, female mice were injected orthotopically with 5 × 10^5 AT3 or AT3-OVA or PTPN2-deleted AT3 or AT3-OVA tumor cells resuspended in 20 μl D-PBS into the fourth mammary fat pad. Tumor sizes were measured in two dimensions (mm^2) using electronic callipers two to three times per week as soon as tumors were palpable (20–25 mm^2).

OT-I CD8+ T cells = assay: T cell activation assay (CD25, CD69 by flow cytometry); assay type: cell-based, mouse; settings: for CD25, group mean (Mean 2) / CD69, group mean (Mean 2): Fig. 2A; for CD25 (MFI), single replicates / CD69 (MFI), single replicates: N4 1 nM, 1 μM, 48 h, Fig. 2A raw data
Method: The cell surface markers CD8, CD25, and CD69 were analyzed using fluorophore-conjugated antibodies by flow cytometry.

MC38 colon tumors = assay: MC38 colon tumor growth in C57BL/6 mice; assay type: in vivo, mouse; settings: 10 mg, listed as CMP-182; for Tumour growth MC38, individual mice: in mm2
Method: as §1

[1] = Lck-Cre;Ptpn2fl/fl (2K) OT-I cells, listed as 2KI
[2] = wild type OT-I cells + inhibitor, n 6
[3] = wild type OT-I cells, listed as WTI

For `CC(C)(O)CCOc1ccc2cc(O)c(N3CC(=O)NS3(=O)=O)c(F)c2c1` [Compound 182, 5-(1-Fluoro-3-hydroxy-7-(3-hydroxy-3-methylbutoxy)naphthalen-2-yl)−1,2,5-thiadiazolidin-3-one 1,1-dioxide], the “AT3 tumor growth in Lck-Cre;Ptpn2fl/fl mice” value (AT3 mammary tumors; 10 mg/kg i.v., beyond PTPN2 deletion in T cells) was “further suppressed tumor growth”, the “eradication of AT3 tumors in Lck-Cre;Ptpn2fl/fl mice” value (AT3 mammary tumors; 10 mg/kg i.v., tumors eradicated/total) was 3/6 and the “Tumour weights (mean)” value (AT3 mammary tumors; AT-3 tumours, CMP-182 in LCK-CRE-PTPN2 mice) was 7. The “Tumour size (mean)” value (AT3 mammary tumors; AT-3 tumours, time point 7) was 19.03, the “Tumour size (mean)” value (AT3 mammary tumors; AT-3 tumours, time point 10) was 21.39 and the “Tumour size (mean)” value (AT3 mammary tumors; AT-3 tumours, time point 12) was 20.59. For the same compound, the “Tumour size (mean)” value (AT3 mammary tumors; AT-3 tumours, time point 14) was 19.84, the “Tumour size (mean)” value (AT3 mammary tumors; AT-3 tumours, time point 16) was 13.84 and the “Tumour size (mean)” value (AT3 mammary tumors; AT-3 tumours, time point 19) was 12.75. The “Tumour size (mean)” value (AT3 mammary tumors; AT-3 tumours, time point 21) was 13.01, the “Tumour size (mean)” value (AT3 mammary tumors; AT-3 tumours, time point 23) was 11.77 and the “Tumour weights, median” value (AT3 mammary tumors; AT-3 tumours, CMP-182 in LCK-CRE-PTPN2 mice, n=6) was 7.500, n=6. For the same compound, the Tumour growth (AT3 mammary tumors; AT-3 tumours, LCK-CRE-PTPN2 mice n=6, day 7 post injection, listed as CMP-182) was 13.566 (2×) and 20.8844 (2×) and 21.6987 (2×) and 6.7144 (2×) and 16.1674 (2×) and 35.1652 (2×), the Tumour growth (AT3 mammary tumors; AT-3 tumours, LCK-CRE-PTPN2 mice n=6, day 10 post injection, listed as CMP-182) was 12.25 (2×) and 27.03 (2×) and 24 (2×) and 10.5 (2×) and 18.4 (2×) and 36.18 (2×) and the Tumour growth (AT3 mammary tumors; AT-3 tumours, LCK-CRE-PTPN2 mice n=6, day 12 post injection, listed as CMP-182) was 9 (2×) and 29.15 (2×) and 22.5 (2×) and 12.6 (2×) and 15.2 (2×) and 35.1 (2×). The Tumour growth (AT3 mammary tumors; AT-3 tumours, LCK-CRE-PTPN2 mice n=6, day 14 post injection, listed as CMP-182) was 9 (2×) and 25.92 (2×) and 22.5 (2×) and 13.32 (2×) and 14.35 (2×) and 33.92 (2×), the Tumour growth (AT3 mammary tumors; AT-3 tumours, LCK-CRE-PTPN2 mice n=6, day 16 post injection, listed as CMP-182) was 0 (4×) and 24.48 (2×) and 22.95 (2×) and 7.5 (2×) and 28.08 (2×) and the Tumour growth (AT3 mammary tumors; AT-3 tumours, LCK-CRE-PTPN2 mice n=6, day 19 post injection, listed as CMP-182) was 0 (4×) and 22.55 (2×) and 22.95 (2×) and 4 (2×) and 27 (2×). For the same compound, the Tumour growth (AT3 mammary tumors; AT-3 tumours, LCK-CRE-PTPN2 mice n=6, day 21 post injection, listed as CMP-182) was 0 (4×) and 27.56 (2×) and 22.5 (2×) and 4 (2×) and 24 (2×), the Tumour growth (AT3 mammary tumors; AT-3 tumours, LCK-CRE-PTPN2 mice n=6, day 23 post injection, listed as CMP-182) was 0 (4×) and 25 (2×) and 22.54 (2×) and 1 (2×) and 22.08 (2×) and the Tumour weights (AT3 mammary tumors; AT-3 tumours, LCK-CRE-PTPN2 mice n=6, individual mice (Figure 8D), listed as CMP-182) was 0 and 12 and 10 and 5 and 15. The “CD25, group mean (Mean 2)” value (OT-I CD8+ T cells; 2K OT-I cells + inhibitor, n 4) was 49238, the “CD69, group mean (Mean 2)” value (OT-I CD8+ T cells; 2K OT-I cells + inhibitor, n 4) was 3065 and the “CD25 (MFI), single replicates” value (OT-I CD8+ T cells; [1]) was 50690 and 58145 and 42341 and 45775. For the same compound, the “CD69 (MFI), single replicates” value (OT-I CD8+ T cells; [1]) was 3049 and 3660 and 3360 and 2191, the “antigen-induced activation of CD8+ T cells (CD25, CD69)” value (OT-I CD8+ T cells; OT-I cells, SIINFEKL (N4)) was “enhanced” and the “CD25, group mean (Mean 2)” value (OT-I CD8+ T cells; [2]) was 43739. For the same compound, the “CD69, group mean (Mean 2)” value (OT-I CD8+ T cells; [2]) was 2723, the “CD25 (MFI), single replicates” value (OT-I CD8+ T cells; [3]) was 44120 and 42537 and 42315 and 46694 and 45914 and 40851 and the “CD69 (MFI), single replicates” value (OT-I CD8+ T cells; [3]) was 2509 and 2213 and 3486 and 2750 and 2693 and 2686. The “Tumour weights MC38, individual mice” value (MC38 colon tumors; Figure 4A, in mg (unit assumed)) was 243 and 125 and 480 and 119 and 315, the “Tumour growth MC38, individual mice” value (MC38 colon tumors; day 7 post injection) was 20.3252 and 20.2131 and 15.2865 and 13.9084 and 14.2859 and the “Tumour growth MC38, individual mice” value (MC38 colon tumors; day 10 post injection) was 21.1854 and 45.7254 and 22.9296 and 28.815 and 21.9308. The “Tumour growth MC38, individual mice” value (MC38 colon tumors; day 13 post injection) was 21.6489 and 72.4458 and 32.816 and 40.3221 and 29.9376, the “Tumour growth MC38, individual mice” value (MC38 colon tumors; day 15 post injection) was 31.85 and 42.18 and 22.5 and 27 and 32.94 and the “Tumour growth MC38, individual mice” value (MC38 colon tumors; day 16 post injection) was 29.5394 and 119.382 and 44.1741 and 56.472 and 40.779. The “Tumour growth MC38, individual mice” value (MC38 colon tumors; day 18 post injection) was 34.2 and 109.2 and 37.7 and 77.4 and 61.62.
